Reference: paper PMC5218480 (PLoS ONE, 2017)

Test system: MV-4-11 cells
Assay: Gene expression microarray analysis (Affymetrix PrimeView) and GSEA
Assay type: cell-based, human
Design: RFU PODN (11730768_x_at) / Fold change /veh PODN (11730768_x_at) / RFU LINC00158 (11744669_a_at) / Fold change /veh LINC00158 (11744669_a_at) / RFU DUSP10 (11751237_a_at) / Fold change /veh DUSP10 (11751237_a_at) / RFU ID3 (11757404_x_at) / Fold change /veh ID3 (11757404_x_at) / RFU PLEKHG5 (11737974_s_at) / Fold change /veh PLEKHG5 (11737974_s_at) / RFU LRRC4B (11730491_at) / Fold change /veh LRRC4B (11730491_at) / RFU GIMAP4 (11747438_a_at) / Fold change /veh GIMAP4 (11747438_a_at) / RFU KRT8 (11758183_x_at) / Fold change /veh KRT8 (11758183_x_at) / RFU CNN1 (11734310_a_at) / Fold change /veh CNN1 (11734310_a_at) / RFU VPS37D (11726825_at) / Fold change /veh VPS37D (11726825_at) / RFU C10orf10 (11716522_x_at) / Fold change /veh C10orf10 (11716522_x_at) / RFU KIR2DL2 /// KIR2DL4 /// KIR2DL5A /// KIR2DL5B /// KIR2DS1 /// KIR2DS2 /// KIR2DS3 /// KIR2DS4 /// KIR3DL3 /// KIR3DL3 /// KIR3DS1 (11738374_at) / Fold change /veh KIR2DL2 /// KIR2DL4 /// KIR2DL5A /// KIR2DL5B /// KIR2DS1 /// KIR2DS2 /// KIR2DS3 /// KIR2DS4 /// KIR3DL3 /// KIR3DL3 /// KIR3DS1 (11738374_at) / RFU C1QL1 (11718748_at) / Fold change /veh C1QL1 (11718748_at) / RFU TMPRSS4 (11747572_a_at) / Fold change /veh TMPRSS4 (11747572_a_at) / RFU HAMP (11756126_x_at) / Fold change /veh HAMP (11756126_x_at) / RFU RNFT2 (11725882_a_at) / Fold change /veh RNFT2 (11725882_a_at) / RFU NR4A2 (11747474_a_at) / Fold change /veh NR4A2 (11747474_a_at) / RFU ABCC12 (11746883_a_at) / Fold change /veh ABCC12 (11746883_a_at) / RFU TMEM136 (11760407_x_at) / Fold change /veh TMEM136 (11760407_x_at) / RFU CLDN22 /// WWC2 (11732394_at) / Fold change /veh CLDN22 /// WWC2 (11732394_at) / RFU HLA-DPB1 (11760878_x_at) / Fold change /veh HLA-DPB1 (11760878_x_at) / RFU SPINT1 (11716480_a_at) / Fold change /veh SPINT1 (11716480_a_at) / RFU GAP43 (11754022_s_at) / Fold change /veh GAP43 (11754022_s_at) / RFU A4GNT (11735810_at) / Fold change /veh A4GNT (11735810_at) / RFU PRB3 (11715151_x_at) / Fold change /veh PRB3 (11715151_x_at) / RFU TUBB4B (11761932_at) / Fold change /veh TUBB4B (11761932_at) / RFU CAPN14 (11732068_a_at) / Fold change /veh CAPN14 (11732068_a_at) / RFU TMCC2 (11721928_a_at) / Fold change /veh TMCC2 (11721928_a_at) / RFU IRGQ (11745062_a_at) / Fold change /veh IRGQ (11745062_a_at) / RFU FAM174B (11720279_a_at) / Fold change /veh FAM174B (11720279_a_at) / RFU TMPRSS4 (11748680_a_at) / Fold change /veh TMPRSS4 (11748680_a_at) / RFU FAM212B (11763350_a_at) / Fold change /veh FAM212B (11763350_a_at) / RFU PLEKHG5 (11743358_a_at) / Fold change /veh PLEKHG5 (11743358_a_at) / RFU ZSCAN30 (11745921_a_at) / Fold change /veh ZSCAN30 (11745921_a_at) / RFU CMKLR1 (11741424_a_at) / Fold change /veh CMKLR1 (11741424_a_at) / RFU LOC101060620 /// MAPK8IP1 (11723275_at) / Fold change /veh LOC101060620 /// MAPK8IP1 (11723275_at) / RFU SPTSSB (11747773_x_at) / Fold change /veh SPTSSB (11747773_x_at) / RFU PRSS12 (11739890_at) / Fold change /veh PRSS12 (11739890_at) / RFU BIN1 (11741810_x_at) / Fold change /veh BIN1 (11741810_x_at) / RFU WNT11 (11732464_a_at) / Fold change /veh WNT11 (11732464_a_at) / RFU C10orf10 (11716521_a_at) / Fold change /veh C10orf10 (11716521_a_at) / RFU C5orf56 (11738089_at) / Fold change /veh C5orf56 (11738089_at) / RFU CYB561 (11721691_x_at) / Fold change /veh CYB561 (11721691_x_at) / RFU ANKRD19P (11752326_a_at) / Fold change /veh ANKRD19P (11752326_a_at) / RFU OR2T12 /// OR2T33 /// OR2T8 (11738714_s_at) / Fold change /veh OR2T12 /// OR2T33 /// OR2T8 (11738714_s_at) / RFU VCAN (11748164_a_at) / Fold change /veh VCAN (11748164_a_at) / RFU JSRP1 (11732532_at) / Fold change /veh JSRP1 (11732532_at) / RFU KRTAP10-11 (11738290_x_at) / Fold change /veh KRTAP10-11 (11738290_x_at) / RFU MYO3A (11730013_a_at) / Fold change /veh MYO3A (11730013_a_at) / RFU EBF3 (11725865_a_at) / Fold change /veh EBF3 (11725865_a_at) / RFU CAMK2N1 (11719241_x_at) / Fold change /veh CAMK2N1 (11719241_x_at) / RFU C5orf56 (11738088_a_at) / Fold change /veh C5orf56 (11738088_a_at) / RFU OLFML3 (11715873_a_at) / Fold change /veh OLFML3 (11715873_a_at) / RFU LOC100653217 /// NTM (11731650_a_at) / Fold change /veh LOC100653217 /// NTM (11731650_a_at) / RFU MAPK11 (11762145_a_at) / Fold change /veh MAPK11 (11762145_a_at) / RFU FIZ1 (11724087_x_at) / Fold change /veh FIZ1 (11724087_x_at) / RFU OASL (11726364_x_at) / Fold change /veh OASL (11726364_x_at) / RFU SOX15 (11748057_x_at) / Fold change /veh SOX15 (11748057_x_at) / RFU CD79A (11719716_a_at) / Fold change /veh CD79A (11719716_a_at) / RFU HIST1H1D (11736915_at) / Fold change /veh HIST1H1D (11736915_at) / RFU CASKIN2 (11723855_a_at) / Fold change /veh CASKIN2 (11723855_a_at) / RFU LOC730098 (11760151_x_at) / Fold change /veh LOC730098 (11760151_x_at) / RFU OR4N2 (11742367_at) / Fold change /veh OR4N2 (11742367_at) / RFU PRRT2 (11749266_a_at) / Fold change /veh PRRT2 (11749266_a_at) / RFU SNX32 (11753110_a_at) / Fold change /veh SNX32 (11753110_a_at) / RFU CDHR5 (11726645_a_at) / Fold change /veh CDHR5 (11726645_a_at) / RFU RCAN1 (11760418_a_at) / Fold change /veh RCAN1 (11760418_a_at) / RFU FAM167A (11723789_a_at) / Fold change /veh FAM167A (11723789_a_at) / RFU FAM26E (11764081_at) / Fold change /veh FAM26E (11764081_at) / RFU ISYNA1 (11749810_s_at) / Fold change /veh ISYNA1 (11749810_s_at) / RFU ACY1 (11761880_at) / Fold change /veh ACY1 (11761880_at) / RFU 11764098_at / Fold change /veh 11764098_at / RFU SAMD14 (11745864_x_at) / Fold change /veh SAMD14 (11745864_x_at) / RFU NPB (11741838_a_at) / Fold change /veh NPB (11741838_a_at) / RFU TMPRSS6 (11731388_a_at) / Fold change /veh TMPRSS6 (11731388_a_at) / RFU KRTAP10-2 (11738614_at) / Fold change /veh KRTAP10-2 (11738614_at) / RFU ARHGAP8 /// PRR5-ARHGAP8 (11727945_x_at) / Fold change /veh ARHGAP8 /// PRR5-ARHGAP8 (11727945_x_at) / RFU KRTAP5-7 /// NADSYN1 (11734609_at) / Fold change /veh KRTAP5-7 /// NADSYN1 (11734609_at) / RFU RASL12 (11751679_a_at) / Fold change /veh RASL12 (11751679_a_at) / RFU CDKN2B (11736163_a_at) / Fold change /veh CDKN2B (11736163_a_at) / RFU PRF1 (11729649_at) / Fold change /veh PRF1 (11729649_at) / RFU, ZNF638 /// ZNF638-IT1 / Fold change vs veh, ZNF638 /// ZNF638-IT1 / RFU, PANK3 / Fold change vs veh, PANK3 / RFU, SH3YL1 / Fold change vs veh, SH3YL1 / RFU, ZEB2 / Fold change vs veh, ZEB2 / RFU, NRIP1 / Fold change vs veh, NRIP1 / RFU, PTTG1IP / Fold change vs veh, PTTG1IP / RFU, CAPN2 / Fold change vs veh, CAPN2 / RFU, MED14 / Fold change vs veh, MED14 / RFU, SNORA58 / Fold change vs veh, SNORA58 / RFU, C1orf63 / Fold change vs veh, C1orf63 / RFU, LRRFIP1 / Fold change vs veh, LRRFIP1 / RFU, NDUFAF7 / Fold change vs veh, NDUFAF7 / RFU, SLC12A2 / Fold change vs veh, SLC12A2 / RFU, IBTK / Fold change vs veh, IBTK / RFU, ESF1 / Fold change vs veh, ESF1 / Fold change vs veh, TMEM50B / RFU, TAOK1 / Fold change vs veh, TAOK1 / RFU, ACBD3 / Fold change vs veh, ACBD3 / RFU, TMA16 / Fold change vs veh, TMA16 / RFU, RWDD3 / Fold change vs veh, RWDD3 / RFU, BCAT1 / Fold change vs veh, BCAT1 / RFU, EDEM3 / Fold change vs veh, EDEM3 / RFU, TMEM33 / Fold change vs veh, TMEM33 / RFU, WDR75 / Fold change vs veh, WDR75 / RFU, AHCTF1 / Fold change vs veh, AHCTF1 / RFU, TFRC / Fold change vs veh, TFRC / RFU, ZDHHC17 / Fold change vs veh, ZDHHC17 / RFU, NOM1 / Fold change vs veh, NOM1 / RFU, ARL8B / Fold change vs veh, ARL8B / RFU, ZBTB11 / Fold change vs veh, ZBTB11 / RFU, TAMM41 / Fold change vs veh, TAMM41 / RFU, KIAA1704 /// LOC100996395 / Fold change vs veh, KIAA1704 /// LOC100996395 / RFU, ING1 / Fold change vs veh, ING1 / RFU, TRMT61B / Fold change vs veh, TRMT61B / RFU, FUBP3 / Fold change vs veh, FUBP3 / RFU, TP53 / Fold change vs veh, TP53 / RFU, TNKS2 / Fold change vs veh, TNKS2 / RFU, ZFP14 / Fold change vs veh, ZFP14 / RFU, ACTR2 / Fold change vs veh, ACTR2 / RFU, PPP3R1 / Fold change vs veh, PPP3R1 / RFU, PIK3R1 / Fold change vs veh, PIK3R1 / RFU, HNRNPA1 / Fold change vs veh, HNRNPA1 / RFU, RNF170 / Fold change vs veh, RNF170 / RFU, ZNF28 / Fold change vs veh, ZNF28 / RFU, RNGTT / Fold change vs veh, RNGTT / RFU, OGT / Fold change vs veh, OGT / RFU, BRD1 / Fold change vs veh, BRD1 / RFU, MARS / Fold change vs veh, MARS / RFU, ZNF655 / Fold change vs veh, ZNF655 / RFU, FAHD1 / Fold change vs veh, FAHD1 / RFU, BDP1 / Fold change vs veh, BDP1 / RFU, LRRCC1 / Fold change vs veh, LRRCC1 / RFU, ARID1A / Fold change vs veh, ARID1A / RFU, ZNF146 / Fold change vs veh, ZNF146 / RFU, ZNF330 / Fold change vs veh, ZNF330 / RFU, GPN3 / Fold change vs veh, GPN3 / RFU, C9orf123 / Fold change vs veh, C9orf123 / RFU, N4BP2L2 / Fold change vs veh, N4BP2L2 / RFU, ARFIP1 / Fold change vs veh, ARFIP1 / RFU, FAM179B / Fold change vs veh, FAM179B / RFU, BCL10 / Fold change vs veh, BCL10 / RFU, UHRF1BP1L / Fold change vs veh, UHRF1BP1L / RFU, BET1 / Fold change vs veh, BET1 / RFU, CNOT2 / Fold change vs veh, CNOT2 / RFU, ZNF268 / Fold change vs veh, ZNF268 / Fold change vs veh, ZNF507 / RFU, DGCR2 / Fold change vs veh, DGCR2 / RFU, WDSUB1 / Fold change vs veh, WDSUB1 / Fold change vs veh, HSP90B1 /// MIR3652 / RFU, ADSS / Fold change vs veh, ADSS / RFU, GK / Fold change vs veh, GK / RFU, ZNF148 / Fold change vs veh, ZNF148 / RFU, TAF9 / Fold change vs veh, TAF9 / RFU, SLC1A5 / Fold change vs veh, SLC1A5 / RFU, SLMO2 / Fold change vs veh, SLMO2 / RFU, ABCC4 / Fold change vs veh, ABCC4 / RFU, LOC101060439 /// RAP1B / Fold change vs veh, LOC101060439 /// RAP1B / RFU, RFX7 / Fold change vs veh, RFX7 / RFU, GTPBP10 / Fold change vs veh, GTPBP10 / RFU, CNEP1R1 / Fold change vs veh, CNEP1R1 / RFU, BIVM-ERCC5 /// ERCC5 / Fold change vs veh, BIVM-ERCC5 /// ERCC5 / RFU, ILF3 / Fold change vs veh, ILF3 / RFU 11762660_at / Fold change /veh 11762660_at / RFU VCAN (11757783_s_at) / Fold change /veh VCAN (11757783_s_at) / RFU DDX43 (11728927_at) / Fold change /veh DDX43 (11728927_at) / RFU KRT8 (11758188_x_at) / Fold change /veh KRT8 (11758188_x_at) / RFU NKD1 (11759106_at) / Fold change /veh NKD1 (11759106_at) / RFU SRD5A1 (11742802_a_at) / Fold change /veh SRD5A1 (11742802_a_at) / RFU TPSAB1 /// TPSB2 (11721975_s_at) / Fold change /veh TPSAB1 /// TPSB2 (11721975_s_at) / RFU GSTM3 (11746129_a_at) / Fold change /veh GSTM3 (11746129_a_at) / RFU IL23R (11737362_x_at) / Fold change /veh IL23R (11737362_x_at) / RFU TMEM51 (11727254_a_at) / Fold change /veh TMEM51 (11727254_a_at) / RFU PIWIL2 (11732686_x_at) / Fold change /veh PIWIL2 (11732686_x_at) / RFU ORM1 (11744905_x_at) / Fold change /veh ORM1 (11744905_x_at) / RFU CCDC152 (11743942_at) / Fold change /veh CCDC152 (11743942_at) / RFU ECM1 (11717891_a_at) / Fold change /veh ECM1 (11717891_a_at) / RFU IL23R (11748794_a_at) / Fold change /veh IL23R (11748794_a_at) / RFU TNFAIP8L3 (11732012_x_at) / Fold change /veh TNFAIP8L3 (11732012_x_at) / RFU MBOAT4 (11741988_at) / Fold change /veh MBOAT4 (11741988_at) / RFU 11764193_at / Fold change /veh 11764193_at / RFU TMEM53 (11763286_at) / Fold change /veh TMEM53 (11763286_at) / RFU MAGEB2 (11727129_at) / Fold change /veh MAGEB2 (11727129_at) / RFU TMEM200A (11744735_a_at) / Fold change /veh TMEM200A (11744735_a_at) / RFU CCDC152 (11751479_a_at) / Fold change /veh CCDC152 (11751479_a_at) / RFU FAM211A (11726209_a_at) / Fold change /veh FAM211A (11726209_a_at) / RFU RGS16 (11746705_a_at) / Fold change /veh RGS16 (11746705_a_at) / RFU VCAN (11755009_s_at) / Fold change /veh VCAN (11755009_s_at) / RFU RHOB (11743442_s_at) / Fold change /veh RHOB (11743442_s_at) / RFU RGS16 (11720943_a_at) / Fold change /veh RGS16 (11720943_a_at) / RFU RGS16 (11720944_at) / Fold change /veh RGS16 (11720944_at) / RFU, VPS4B / Fold change vs veh, VPS4B / RFU, CREB1 / Fold change vs veh, CREB1 / RFU, DNAJC13 / Fold change vs veh, DNAJC13 / RFU, GNAQ / Fold change vs veh, GNAQ / RFU, CDK5R1 / Fold change vs veh, CDK5R1 / RFU, ZRANB3 / Fold change vs veh, ZRANB3 / RFU, CUL4A / Fold change vs veh, CUL4A / RFU, CCNY / Fold change vs veh, CCNY / RFU, UFL1 / Fold change vs veh, UFL1 / RFU, COG3 / Fold change vs veh, COG3 / RFU, DIAPH2 / Fold change vs veh, DIAPH2 / RFU, SKA2 / Fold change vs veh, SKA2 / RFU, AFF3 / Fold change vs veh, AFF3 / RFU, LMF1 / Fold change vs veh, LMF1 / RFU, IPO11 / Fold change vs veh, IPO11 / RFU, DFFB / Fold change vs veh, DFFB / RFU, FOXP1 / Fold change vs veh, FOXP1 / RFU, CARD8 / Fold change vs veh, CARD8 / RFU, STRN3 / Fold change vs veh, STRN3 / RFU, ADK / Fold change vs veh, ADK / RFU, RASSF2 / Fold change vs veh, RASSF2 / RFU, WIPF1 / Fold change vs veh, WIPF1 / RFU, LARP1B / Fold change vs veh, LARP1B / RFU, RASA1 / Fold change vs veh, RASA1 / RFU, RB1 / Fold change vs veh, RB1 / RFU, PPFIA1 / Fold change vs veh, PPFIA1 / RFU, MAT2A / Fold change vs veh, MAT2A / RFU, CCT5 / Fold change vs veh, CCT5 / RFU, WDR92 / Fold change vs veh, WDR92 / RFU, CUX1 / Fold change vs veh, CUX1 / RFU, TTC7A / Fold change vs veh, TTC7A / RFU, TMEM135 / Fold change vs veh, TMEM135 / RFU, DEPTOR / Fold change vs veh, DEPTOR / RFU, CPM / Fold change vs veh, CPM / RFU, DNAJB6 / Fold change vs veh, DNAJB6 / RFU, CACNA2D3 / Fold change vs veh, CACNA2D3 / RFU, DTX4 / Fold change vs veh, DTX4 / RFU, TFCP2 / Fold change vs veh, TFCP2 / RFU, GMCL1 /// GMCL1P1 / Fold change vs veh, GMCL1 /// GMCL1P1 / RFU, AEBP2 / Fold change vs veh, AEBP2 / RFU, SNHG1 /// SNORD22 /// SNORD25 /// SNORD26 /// SNORD27 /// SNORD28 /// SNORD29 /// SNORD31 / Fold change vs veh, SNHG1 /// SNORD22 /// SNORD25 /// SNORD26 /// SNORD27 /// SNORD28 /// SNORD29 /// SNORD31 / Fold change (Aza/veh), C12orf56 (ProbeSet 11735607_a_at) / Fold change (ACY-1035/veh), C12orf56 (ProbeSet 11735607_a_at) / Fold change (Aza/veh), FGFR1OP (ProbeSet 11751329_s_at) / Fold change (ACY-1035/veh), FGFR1OP (ProbeSet 11751329_s_at) / Fold change (Aza/veh), VPS36 (ProbeSet 11739960_a_at) / Fold change (ACY-1035/veh), VPS36 (ProbeSet 11739960_a_at) / RFU SYPL1 (11715823_x_at) / Fold change /veh SYPL1 (11715823_x_at) / RFU IGFBP7 (11715501_s_at) / Fold change /veh IGFBP7 (11715501_s_at) / RFU REEP3 (11722064_at) / Fold change /veh REEP3 (11722064_at) / RFU IGLL1 (11728026_x_at) / Fold change /veh IGLL1 (11728026_x_at): dose or concentration left out as unconfirmed
Conditions: ProbeSet 11723141_at; LIST B

Structure (SMILES): Nc1ncn([C@@H]2O[C@H](CO)[C@@H](O)[C@H]2O)c(=O)n1 [azacitidine]
- Fold change vs veh, ZBTB11: 0.93
